Experimental data as given in patent publication US8124069B2, “Immunogenic peptides” (Rush University Medical Center, priority 2002, dated 2012).
Where “and” joins values, the source holds several entries; their conditions need not be identical. Equal values may be shown once. Blank lines part the entries; values can stand above or below the substance they belong to.

Experiments:
[1] = tested on: effector cells (T lymphocytes); conditions: APC: T2; 2 stims
[2] = tested on: HLA-A2.1 positive ML-2 cells; experiment: Cytotoxicity of peptide-specific CTLs against ML-2 cells (51Cr release); format: cell-based, human; conditions: for Cytotoxicity of peptide-specific CTLs against ML-2 cells (%): target:effector 1:60
Text: The present example illustrates that that the present peptides are capable of inducing a T-lymphocyte response. In this example, antigen presenting cells were pulsed at 150 micrograms of each peptide per 1 million antigen presenting cells with the following amino acid sequences: […]

HLA-A2.1 = HLA-A2.1 (Homo sapiens, UniProt P04439, D140Y/D185E/D98H/E176V/E277Q/G131W/G231S/I119V/I121R/I166T/I218V/L300P/L318F/N151K/N90K/P208A/P217A/Q86G/Q94H/R138H/R169H/T345S); experiment: Peptide binding to HLA-A2.1+ T2 cells under Brefeldin A treatment (peptide/HLA-A2.1 complex stability)
dendritic cells = experiment: Phenotypic analysis of dendritic cells matured with maturation factors; format: cell-based, human; conditions: DCs matured during last three days of culture
Description: Immature DCs were generated according to modified protocols of Romani et al. (1994) and Bakker et al. (1995). Briefly, fresh or frozen/thawed CD14+ cells were cultured in RPMI 1640 medium (Gibco-Life Technologies) supplemented with 10% FCS, 1,000 U/ml GM-CSF and 1,000 U/ml IL-4. The cell cultures were fed with fresh medium and GM-CSF and IL-4 every other day and cell differentiation was monitored by light microscopy. On day 7, the cultures were supplemented with different combinations of DC maturation factors such as lipopolysaccharide (100 U/ml), TNF-α (10 ng/ml), or IFN-α (1,000 U/ml) plus TNF-α (10 ng/ml). After three days of incubation, mature DCs (mDC) were harvested and evaluated for their phenotypes by flow cytometry. The maturation factor(s) yielding optimal DC maturation was determined and used to generate mDCs for peptide pulsing in upcoming studies. In this example, immature DCs obtained by the culture of CD 14+ monocytes with GM-CSF (1,000 U/ml) and IL-4 (1,000 U/ml) were induced to undergo maturation by incubation with LPS (100 Units/ml), TNF-α10 ng/ml) or TNF-α (10 ng/ml)+IFN-α50 ng/ml) during the final three days of the culture period. […] The highest up-regulation of the co-stimulatory (CD80 and CD86) and HLA-A2.1 MHC class I molecules was detected on DCs treated with TNF-α+IFN-α (Table 5).

Substance: YLALCLCLI (listed as Homo sapiens) [SEQ ID NO: 1, modified CD33 fragment peptide]
Expression level of CD4 (T helper), mean fluorescence intensity [1]: 81 and 57 | Expression level of CD45RO (Memory), mean fluorescence intensity [1]: 1262 and 1432 | Expression level of CD95 (Activation), mean fluorescence intensity [1]: 99 and 102 | Cytotoxicity of peptide-specific CTLs against ML-2 cells (%) ([2]; APC: T2, 2 stimulations, donors F, G): 21% and 34% | Cytotoxicity of peptide-specific CTLs against ML-2 cells (%) ([2]; APC: T2, 3 stimulations, donors F, G): 36% and 64%

binding to HLA-A2.1 on T2 cells, in words (HLA-A2.1): good and prolonged stable binding
Substance: ALISGDSPV (listed as Homo sapiens) [SEQ ID NO: 16, modified CD33 peptide]
immunogenicity in similar experiments [2]: immunogenic

Substance: TNF-α
CD80 expression, mean channel fluorescence (MCF) (dendritic cells): 107 | CD86 expression, mean channel fluorescence (MCF) (dendritic cells): 96 | HLA-A2.1 expression, mean channel fluorescence (MCF) (dendritic cells): 475

binding to HLA-A2.1 on T2 cells, in words (HLA-A2.1): good and prolonged stable binding
Substance: YLISGDSPV (listed as Homo sapiens) [SEQ ID NO: 7, modified CD33 peptide]

binding to HLA-A2.1 on T2 cells, in words (HLA-A2.1): good and prolonged stable binding
Substance: YIISGISPV (listed as Homo sapiens) [SEQ ID NO: 6, modified CD33 peptide]

Substance: YIISGDSPV (listed as Homo sapiens) [SEQ ID NO: 3, modified CD33 peptide]
Cytotoxicity of peptide-specific CTLs against ML-2 cells (%) ([2]; APC: DC, 2 stimulations, different donors): 37%
